Experimental data taken from a compilation of properties of binary mixtures (doi:10.1021/acs.jpcc.9b06000).

Test: xn = mol fraction of the nth substance listed
Conditions: 101 kPa

FC1CC(F)(F)C(F)(F)C1(F)F (centres undefined) + CCCC[N+]1(C)CCCC1.FC(F)(F)C(F)(F)[P-](F)(F)(F)(C(F)(F)C(F)(F)F)C(F)(F)C(F)(F)F
Conditions | electrical conductivity [S/m] | viscosity [mPa·s]
298.1 K, x2 = 0.035 | 0.402 | –
298.1 K, x2 = 0.077 | 0.514 | –
298.1 K, x2 = 0.122 | 0.605 | –
298.1 K, x2 = 0.127 | – | 3.91
298.1 K, x2 = 0.18 | 0.678 | –
298.1 K, x2 = 0.248 | 0.569 | –
298.1 K, x2 = 0.334 | 0.489 | –
298.1 K, x2 = 0.437 | 0.351 | –
298.1 K, x2 = 0.656 | – | 54.8
298.1 K, x2 = 0.841 | – | 112.6
303 K, x2 = 0.035 | 0.428 | –
303 K, x2 = 0.077 | 0.554 | –
303 K, x2 = 0.08 | – | 2.72
303 K, x2 = 0.122 | 0.656 | –
303 K, x2 = 0.248 | 0.638 | –
303 K, x2 = 0.331 | 0.572 | –
303 K, x2 = 0.338 | – | 11.23
303 K, x2 = 0.653 | 0.33 | –
303 K, x2 = 0.659 | – | 45
308.1 K, x2 = 0.032 | 0.453 | –
308.1 K, x2 = 0.08 | – | 2.37
308.1 K, x2 = 0.125 | 0.717 | –
308.1 K, x2 = 0.183 | 0.812 | –
308.1 K, x2 = 0.248 | 0.703 | –
308.1 K, x2 = 0.331 | 0.641 | –
308.1 K, x2 = 0.437 | 0.478 | 15.23
308.1 K, x2 = 0.656 | 0.38 | 37
308.1 K, x2 = 0.839 | 0.254 | –
308.1 K, x2 = 0.844 | – | 68.1
313 K, x2 = 0 | – | 1.28
313 K, x2 = 0.035 | 0.482 | –
313 K, x2 = 0.077 | 0.638 | –
313 K, x2 = 0.122 | 0.772 | –
313 K, x2 = 0.251 | 0.764 | –
313 K, x2 = 0.334 | 0.714 | –
313 K, x2 = 0.338 | – | 8.03
313 K, x2 = 0.437 | 0.54 | –
313 K, x2 = 0.653 | 0.449 | –
313 K, x2 = 0.655 | – | 28.8
313 K, x2 = 0.839 | 0.297 | –
313 K, x2 = 0.841 | – | 54.5
318.1 K, x2 = 0.08 | – | 1.95
318.1 K, x2 = 0.125 | 0.83 | –
318.1 K, x2 = 0.183 | 0.949 | –
318.1 K, x2 = 0.248 | 0.826 | –
318.1 K, x2 = 0.338 | 0.786 | –
318.1 K, x2 = 0.431 | 0.609 | –
318.1 K, x2 = 0.653 | 0.511 | –
318.1 K, x2 = 0.84 | – | 44.8
323 K, x2 = 0 | – | 1.08
323 K, x2 = 0.039 | 0.543 | –
323 K, x2 = 0.077 | 0.75 | –
323 K, x2 = 0.122 | 0.906 | –
323 K, x2 = 0.183 | 1.04 | 3.12
323 K, x2 = 0.248 | 0.899 | –
323 K, x2 = 0.331 | 0.851 | –
323 K, x2 = 0.335 | – | 6.61
323 K, x2 = 0.434 | 0.703 | –
323 K, x2 = 0.653 | 0.591 | –
323 K, x2 = 0.839 | 0.417 | –
323 K, x2 = 0.84 | – | 36.8
